Assay results taken from US20080176828A1, “Treating melanoma with BIS(THIOHYDRAZIDE AMIDES)” (priority 2006, published 2008).
Where “and” joins values, the source holds several entries; their conditions need not be identical. Equal values may be shown once. Read-outs that look alike come from different tables or passages of the source.

Key:
melanoma = conditions: currently used melanoma treatments, cited from earlier work
[1] = test system: Stage IV metastatic melanoma
Method: Example 1, weekly treatment regimen of compound (1) and paclitaxel combined in Stage IV metastatic melanoma patients in comparison with paclitaxel alone, based on time to progression
The dosages administered were 213 mg/m^2 compound (1), 80 mg/m^2 paclitaxel, and the dosage regimen was 3 weekly doses per each 4 week cycle. Patients were treated until progression of the disease. […] The tumor assessments were performed at baseline, Cycle 2, and every other Cycle thereafter.

[2] = Kaplan-Meier estimate, efficacy sample, Stage IV melanoma patients, 3 weekly doses per 4 week cycle
[3] = RECIST, efficacy sample, number of patients (% of group)
[4] = own trial arms as listed in Tables 3 and 4

Question: With `CNC(=O)c1cc(Oc2ccc(NC(=O)Nc3ccc(Cl)c(C(F)(F)F)c3)cc2)ccn1` [Sorafenib] as the compound, how does the PR (melanoma) read?
Answer: 2.6%

Question: For `CCOP(=O)(OCC)C(C)NC(=O)N(CCCl)N=O` (stereo not shown) [Fotemustine], which OR (melanoma) is on record?
Answer: 15.2%

Question: What about the Survival (melanoma) of the same compound?
Answer: 7.3 months

Question: And the TTP (melanoma)?
Answer: 55 days

Question: With `CC/C(=C(\c1ccccc1)c1ccc(OCCN(C)C)cc1)c1ccccc1` [Tamoxifen] as the compound, how does the CR (melanoma) read?
Answer: 1%

Question: What about the OR (melanoma) of the same compound?
Answer: 4.9%

Question: And the PR (melanoma)?
Answer: 3.9%

Question: Which results are given for `CC(=O)O[C@H]1C(=O)[C@@]2(C)[C@H]([C@H](OC(=O)c3ccccc3)[C@]3(O)C[C@H](OC(=O)[C@H](O)[C@@H](NC(=O)c4ccccc4)c4ccccc4)C(C)=C1C3(C)C)[C@]1(OC(C)=O)CO[C@@H]1C[C@@H]2O` [Paclitaxel]?
Answer: OR (melanoma; listed as Paclitaxel (Taxol)): 12% and 17.8%; Time to Progression, 75th percentile (95% CI) [1, 2]: 106.0 (61.0, 218.0) days; Time to Progression, Median (95% CI) [1, 2]: 56.0 (49.0, 105.0) days; Best Overall Response: Complete Response (CR) [1, 3]: 0; Best Overall Response: Partial Response (PR) [1, 3]: 1 (3.7%); Best Overall Response: Progressive Disease (PD) [1, 3]: 16 (59.3%); CR + PR (95% CI) ([1]; RECIST, efficacy sample, two-sided Fisher's exact test p-value 0.149): 3.7% (0.1%, 19.0%); patients with stable disease ([1]; Table 2): 37%; CR [1, 4]: 0%; OR [1, 4]: 3.7%; PR [1, 4]: 3.7%; TTP [1, 4]: 57 days
